Where two headings read alike, the source gives them in different places.
Columns and labels:
human PI3Kα protein = target: T1, human PI3Kα protein (Homo sapiens, UniProt P42336); assay: PI3Kα enzyme assay (ADP-Glo kinase assay); type: biochemical; details: 3 nM PI3Kα, 50 μM PIP2, 100 μM ATP
T1 construct: purchased Carna Biosciences, Inc; host or cells: Baculovirus expression system
Procedure: Evaluation of the PI3Kα inhibitory activity of the compound of the present invention was carried out according to the method as described below.
For the PI3Kα enzyme assay, biotinylated product of a human PI3Kα protein produced using a Baculovirus expression system (Carna Biosciences, Inc.) was used. Further, for the detection of the enzyme activity, an ADP-Glo kinase assay (PROMEGA Corporation) was used.
10 μL of a reaction solution (3 nM PI3Kα, 40 mM Tris-HCl, 20 mM MgCl2, 0.1% BSA, pH 7.5) including the human PI3Kα protein and a test compound at a predetermined concentration was incubated at room temperature for 15 minutes. Thereafter, 5 μL of a mixed solution of L-α-Phosphatidylinositol 4,5-diphosphate (PIP2) (SIGMA-ALDLICH) which was a substrate and ATP(SIGMA-ALDLICH) was added thereto to a final concentration of 50 μM and 100 μM, respectively, and the reaction solution was further incubated at 25° C. for 60 minutes to carry out an enzyme reaction.
After the reaction, 15 μL of an ADP-Glo reagent (PROMEGA Corporation) was added and the resulting liquid was incubated at room temperature for 60 minutes, whereby the enzyme reaction was stopped. Thereafter, after further adding 30 μL of a Kinase Detection Reagent (PROMEGA Corporation) and standing the resulting solution at room temperature for 40 minutes, ADP produced by the enzyme reaction was quantified by luminescence intensity.
For the measurement of luminescence intensity, EnVision (PerkinElmer, Inc.) was used.
(§1) The inhibitory activity of the compounds was evaluated using an IC50 (50% inhibitory concentration). The IC50 was calculated using XLfit (IDBS).

[1] = target: T2, glutathione S-transferase (GST)-fusion human ERK2 protein (Homo sapiens, UniProt P28482); assay: ERK2 enzyme assay (LabChip mobility shift); type: biochemical; details: 2 nM ERK2, 4.25 μM FL-Peptide 8, 43 μM ATP
T2 construct: purchased Carna Biosciences, Inc; host or cells: E. coli expression system
Procedure: Evaluation of the ERK2 inhibitory activity of the compound of the present invention was carried out according to the method as described below.
For the ERK2 enzyme assay, a glutathione S-transferase (GST)-fusion human ERK2 protein (Carna Biosciences, Inc.) produced using an E. coli expression system was used.
12 μL of the reaction solution (2 nM ERK2, 100 mM Hepes, 10 mM MgCl2, 1.5 mM DTT, 0.003% Brij35, pH 7.5) including the ERK2 protein and a test compound at a predetermined concentration was incubatedat room temperature for 15 minutes. Thereafter, 3 μL of a mixed solution of FL-Peptide 8 (5-FAM-IPTSPITTTYFFFKKK-COOH) (Caliper Lifescience) which was a substrate and ATP(SIGMA-ALDLICH) were added thereto to a final concentration of 4.25 μM and 43 μM, respectively. The reaction solution was further incubated at 25° C. for 120 minutes to carry out an enzyme reaction.
The enzyme reaction was stopped by adding 27 μL of a reaction-stopping solution (100 mM HEPES, 11.2 mM EDTA, 5.6% Brij35, pH 7.5) including a 0.5% Coating reagent 8 (PerkinElmer, Inc.) after the reaction. Thereafter, non-phosphorylated peptides and phosphorylated peptides were separated using LabChip Ez Reader (Caliper LifeScience, Inc.) to quantify the proportion of phosphorylated peptides.
as §1

[2] = IC50 class, read-out: PI3Kα Inhibitory Activity
[3] = IC50 class, read-out: ERK2 Inhibitory Activity

T1 sequence (P42336 whole entry): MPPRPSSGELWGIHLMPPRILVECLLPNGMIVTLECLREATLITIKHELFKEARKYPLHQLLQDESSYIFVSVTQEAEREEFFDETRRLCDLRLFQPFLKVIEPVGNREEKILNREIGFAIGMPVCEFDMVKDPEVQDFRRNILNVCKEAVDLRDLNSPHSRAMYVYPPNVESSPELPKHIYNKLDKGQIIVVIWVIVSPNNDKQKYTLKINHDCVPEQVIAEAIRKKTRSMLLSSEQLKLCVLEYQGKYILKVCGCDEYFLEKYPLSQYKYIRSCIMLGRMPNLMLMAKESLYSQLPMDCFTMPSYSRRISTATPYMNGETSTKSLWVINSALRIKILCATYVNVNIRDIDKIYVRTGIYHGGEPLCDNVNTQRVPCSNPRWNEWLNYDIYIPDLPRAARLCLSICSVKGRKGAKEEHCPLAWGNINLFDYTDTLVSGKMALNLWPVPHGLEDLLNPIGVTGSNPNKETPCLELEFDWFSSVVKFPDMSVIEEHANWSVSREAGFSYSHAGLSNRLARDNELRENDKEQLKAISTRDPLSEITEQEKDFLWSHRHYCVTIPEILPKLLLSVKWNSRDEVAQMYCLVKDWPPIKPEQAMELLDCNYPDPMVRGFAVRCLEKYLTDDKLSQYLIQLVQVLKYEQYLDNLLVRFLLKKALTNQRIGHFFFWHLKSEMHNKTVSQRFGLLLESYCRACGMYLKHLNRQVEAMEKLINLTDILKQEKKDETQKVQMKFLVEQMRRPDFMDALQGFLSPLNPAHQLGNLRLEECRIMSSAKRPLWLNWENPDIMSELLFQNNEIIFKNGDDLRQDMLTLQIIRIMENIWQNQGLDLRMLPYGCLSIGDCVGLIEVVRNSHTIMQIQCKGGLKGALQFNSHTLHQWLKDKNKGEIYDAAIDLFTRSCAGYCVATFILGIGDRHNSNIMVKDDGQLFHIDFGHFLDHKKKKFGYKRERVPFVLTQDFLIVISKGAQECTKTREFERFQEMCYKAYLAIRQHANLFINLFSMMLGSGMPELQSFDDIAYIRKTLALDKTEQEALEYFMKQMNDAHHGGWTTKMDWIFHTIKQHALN
T1 sequence (P27986 whole entry partner): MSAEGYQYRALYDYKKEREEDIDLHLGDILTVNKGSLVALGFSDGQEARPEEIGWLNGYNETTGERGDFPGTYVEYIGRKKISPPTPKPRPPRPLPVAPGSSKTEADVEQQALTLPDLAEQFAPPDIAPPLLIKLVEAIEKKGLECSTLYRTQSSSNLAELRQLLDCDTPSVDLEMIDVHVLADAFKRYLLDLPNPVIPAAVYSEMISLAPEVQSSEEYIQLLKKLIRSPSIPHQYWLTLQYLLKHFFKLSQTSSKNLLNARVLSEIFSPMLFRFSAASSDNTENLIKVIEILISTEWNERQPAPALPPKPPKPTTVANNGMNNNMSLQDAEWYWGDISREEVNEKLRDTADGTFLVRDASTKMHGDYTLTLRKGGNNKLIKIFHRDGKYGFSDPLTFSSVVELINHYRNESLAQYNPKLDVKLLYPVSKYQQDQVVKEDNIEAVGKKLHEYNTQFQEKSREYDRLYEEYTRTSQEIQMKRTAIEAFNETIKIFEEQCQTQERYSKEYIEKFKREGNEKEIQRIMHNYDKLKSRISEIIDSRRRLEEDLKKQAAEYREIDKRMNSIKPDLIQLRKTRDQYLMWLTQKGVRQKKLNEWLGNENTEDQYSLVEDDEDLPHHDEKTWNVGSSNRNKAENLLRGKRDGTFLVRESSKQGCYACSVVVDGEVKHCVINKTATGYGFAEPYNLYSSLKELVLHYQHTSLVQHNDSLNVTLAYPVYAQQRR
T2 sequence (P28482 whole entry, the tested form may be a part): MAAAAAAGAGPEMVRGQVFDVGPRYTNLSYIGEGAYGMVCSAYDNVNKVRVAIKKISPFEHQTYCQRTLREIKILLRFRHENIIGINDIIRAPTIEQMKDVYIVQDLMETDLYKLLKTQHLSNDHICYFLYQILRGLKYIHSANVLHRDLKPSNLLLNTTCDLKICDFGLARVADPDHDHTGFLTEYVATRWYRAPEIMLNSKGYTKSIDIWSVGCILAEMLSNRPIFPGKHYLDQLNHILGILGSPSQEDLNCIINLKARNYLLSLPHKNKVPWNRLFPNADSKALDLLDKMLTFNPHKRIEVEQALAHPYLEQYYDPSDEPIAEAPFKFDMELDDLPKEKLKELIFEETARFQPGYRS

| Structure (SMILES) | IC50 (human PI3Kα protein; [2]) [nM] | IC50 [1, 3] [nM] | IC50 (human PI3Kα protein; read-out: PI3Kα, IC50) [nM] | IC50 ([1]; read-out: ERK2, IC50) [nM] |
| --- | --- | --- | --- | --- |
| CN(CCNC(=O)Nc1ccc2ncc(-c3cn[nH]c3)cc2n1)Cc1ccccc1 [Compound 0108] | 100 to 1000 | < 100 | – | – |
| O=C(NCC1C[C@@H]2CC[C@H]1C2)Nc1ccc2ncc(-c3cn[nH]c3)cc2n1 (some centres unmarked) [Compound 0110] | < 100 | < 100 | – | – |
| O=C(NCCc1c[nH]c2ccccc12)Nc1ccc2ncc(-c3cn[nH]c3)cc2n1 [Compound 0112] | 100 to 1000 | < 100 | – | – |
| O=C(NCC1CCC(F)(F)CC1)Nc1ccc2ncc(-c3cn[nH]c3)cc2n1 [Compound 0113] | 100 to 1000 | < 100 | – | – |
| O=C(NCCC(F)(F)F)Nc1ccc2ncc(-c3cn[nH]c3)cc2n1 [Compound 0115] | < 100 | < 100 | – | – |
| O=C(Nc1ccc2ncc(-c3ccsc3)cc2n1)NC1CCCC1 [Compound 0118] | 100 to 1000 | < 100 | – | – |
| O=C(Nc1ccc2ncc(-c3ccoc3)cc2n1)NC1CCCC1 [Compound 0119] | 100 to 1000 | < 100 | – | – |
| O=C(Nc1ccc2ncc(-c3cnc4ccccc4c3)cc2n1)NC1CCCC1 [Compound 0121] | 1000 to 10000 | 1000 to 10000 | – | – |
| O=C(Nc1ccc2ncc(-c3ccc4[nH]ncc4c3)cc2n1)NC1CCCC1 [Compound 0122] | < 100 | < 100 | – | – |
| O=C(Nc1ccc2ncc(-c3c[nH]nc3C(F)(F)F)cc2n1)NC1CCCC1 [Compound 0124] | < 100 | < 100 | – | – |
| COC(=O)C#Cc1cnc2ccc(NC(=O)NC3CCCC3)nc2c1 [Compound 0127] | 100 to 1000 | 1000 to 10000 | – | – |
| O=C(Nc1ccc2ncc(-c3cc(O)no3)cc2n1)NC1CCCC1 [Compound 0128] | 100 to 1000 | 1000 to 10000 | – | – |
| N#Cc1cnc2ccc(NC(=O)NC3CCCC3)nc2c1 [Compound 0129] | 1000 to 10000 | 1000 to 10000 | – | – |
| NC(=O)c1cnc2ccc(NC(=O)NC3CCCC3)nc2c1 [Compound 0130] | 100 to 1000 | 100 to 1000 | – | – |
| O=C(Nc1ccc2ncc(-c3nn[nH]n3)cc2n1)NC1CCCC1 [Compound 0131] | < 100 | 100 to 1000 | – | – |
| O=C(Nc1ccc2ncc(CN3CCOCC3)cc2n1)NC1CCCC1 [Compound 0132] | 1000 to 10000 | 1000 to 10000 | – | – |
| COc1ccc(C(=O)Nc2cnc3ccc(NC(=O)NC4CCCC4)nc3c2)cc1 [Compound 0135] | < 100 | > 10000 | – | – |
| O=C(Nc1ccc2ncc(-c3cn[nH]c3)cc2n1)NC1CCCC1 [Compound 0137] | < 100 | < 100 | 10 | 7 |
| O=C(Nc1ccc2ncc(Nc3cnccn3)cc2n1)NC1CCCC1 [Compound 0140] | < 100 | 100 to 1000 | – | – |
| O=C(Nc1ccc2ncc(C(=O)N3CCOCC3)cc2n1)NC1CCCC1 [Compound 0141] | > 10000 | > 10000 | – | – |
| O=C(Nc1ccc2ncc(-c3cnn(C4CNC4)c3)cc2n1)NC1CCCC1 [Compound 0143] | < 100 | 100 to 1000 | – | – |
| O=C(Nc1ccc2ncc(-c3cnn(C4CCNC4)c3)cc2n1)NC1CCCC1 (centres unmarked) [Compound 0144] | < 100 | 100 to 1000 | – | – |
| O=C(Nc1ccc2ncc(-c3cnn(CC4CNC4)c3)cc2n1)NC1CCCC1 [Compound 0146] | < 100 | < 100 | – | – |
| CS(=O)(=O)N1CCN(c2cnc3ccc(NC(=O)NC4CCCC4)nc3c2)CC1 [Compound 0151] | < 100 | < 100 | – | – |
| CN1CCN(c2cnc3ccc(NC(=O)NC4CCCC4)nc3c2)CC1=O [Compound 0155] | < 100 | 100 to 1000 | – | – |
| O=C(Nc1ccc2ncc(-c3cn[nH]n3)cc2n1)NC1CCCC1 [Compound 0156] | < 100 | < 100 | – | – |
| O=C(Nc1ccc2ncc(-c3cn[nH]c3)cc2n1)N[C@H]1CCC[C@@H]1OCc1ccccc1 [Compound 0159] | < 100 | 100 to 1000 | – | – |
| O=C(Nc1ccc2ncc(-c3cn[nH]c3)cc2n1)N[C@@H]1CCC[C@H]1OCc1ccccc1 [Compound 0160] | 1000 to 10000 | < 100 | – | – |
| C[C@H](C[C@@H](C)Oc1ccccc1)NC(=O)Nc1ccc2ncc(-c3cn[nH]c3)cc2n1 [Compound 0161] | 100 to 1000 | < 100 | – | – |

More lines, now with the values ahead:

| IC50 (human PI3Kα protein; [2]) [nM] | IC50 [1, 3] [nM] | IC50 (human PI3Kα protein; read-out: PI3Kα, IC50) [nM] | IC50 ([1]; read-out: ERK2, IC50) [nM] | Structure (SMILES) |
| --- | --- | --- | --- | --- |
| 100 to 1000 | < 100 | – | – | O=C(NCCOCc1ccccc1)Nc1ccc2ncc(-c3cn[nH]c3)cc2n1 [Compound 0107] |
| > 10000 | 1000 to 10000 | – | – | CCN(CC)CCNC(=O)Nc1ccc2ncc(-c3cn[nH]c3)cc2n1 [Compound 0109] |
| 1000 to 10000 | 100 to 1000 | – | – | O=C(NCCn1cnc2ccccc21)Nc1ccc2ncc(-c3cn[nH]c3)cc2n1 [Compound 0111] |
| < 100 | < 100 | – | – | O=C(Nc1ccc2ncc(-c3cnn(CCN4CCOCC4)c3)cc2n1)NC1C[C@H]2CC[C@@H]1C2 (some centres unmarked) [Compound 0114] |
| 100 to 1000 | 1000 to 10000 | – | – | O=C(Nc1ccc2ncccc2n1)NC1CCCC1 [Compound 0116] |
| < 100 | 100 to 1000 | – | – | O=C(Nc1ccc2ncc(-c3cnn(CCN4CC5(COC5)C4)c3)cc2n1)NC1CCCC1 [Compound 0117] |
| 100 to 1000 | 100 to 1000 | – | – | O=C(Nc1ccc2ncc(-c3ccc4c(c3)OCO4)cc2n1)NC1CCCC1 [Compound 0120] |
| 100 to 1000 | 1000 to 10000 | – | – | O=C(Nc1ccc2ncc(-c3cnc4[nH]ccc4c3)cc2n1)NC1CCCC1 [Compound 0123] |
| < 100 | 100 to 1000 | < 3 | 324 | O=C(Nc1ccc2ncc(Nc3cn[nH]c3)cc2n1)NC1CCCC1 [Compound 0125] |
| < 100 | 100 to 1000 | – | – | O=C(Nc1ccc2ncc(Nc3cc[nH]n3)cc2n1)NC1CCCC1 [Compound 0126] |
| < 100 | < 100 | – | – | O=C(Nc1ccc2ncc(N3CCS(=O)(=O)CC3)cc2n1)NC1CCCC1 [Compound 0133] |
| < 100 | 1000 to 10000 | – | – | O=C(Nc1ccc2ncc(NC(=O)c3ccccc3)cc2n1)NC1CCCC1 [Compound 0134] |
| < 100 | < 100 | – | – | S=C(Nc1ccc2ncc(-c3cnn(CCN4CCOCC4)c3)cc2n1)NC1CCCC1 [Compound 0138] |
| 100 to 1000 | < 100 | – | – | C[C@@H](NC(=O)Nc1ccc2ncc(-c3cn[nH]c3)cc2n1)c1ccccc1 [Compound 0139] |
| < 100 | 100 to 1000 | – | – | O=C1CN(c2cnc3ccc(NC(=O)NC4CCCC4)nc3c2)CCN1 [Compound 0142] |
| < 100 | 100 to 1000 | – | – | CN1CC(n2cc(-c3cnc4ccc(NC(=O)NC5CCCC5)nc4c3)cn2)C1 [Compound 0145] |
| < 100 | < 100 | – | – | CN1CC(Cn2cc(-c3cnc4ccc(NC(=O)NC5CCCC5)nc4c3)cn2)C1 [Compound 0147] |
| 100 to 1000 | 1000 to 10000 | – | – | CC(C)(C)OC(=O)C1CCN(c2cnc3ccc(NC(=O)NC4CCCC4)nc3c2)CC1 [Compound 0149] |
| 100 to 1000 | 1000 to 10000 | – | – | CN(C)CCNC(=O)C1CCN(c2cnc3ccc(NC(=O)NC4CCCC4)nc3c2)CC1 [Compound 0150] |
| 100 to 1000 | > 10000 | – | – | O=C(Nc1ccc2ncc(N3CCN(c4ccccc4)CC3)cc2n1)NC1CCCC1 [Compound 0153] |
| 100 to 1000 | 100 to 1000 | – | – | C[C@H](C[C@H](C)NC(=O)Nc1ccc2ncc(-c3cn[nH]c3)cc2n1)Oc1ccccc1 [Compound 0162] |

Reference: patent publication US8841456B2, “1,5-naphthyridine derivative or salt thereof” (FUJIFILM Corporation, priority 2011, dated 2014)
